Patent publication EP1541694A1, “Methods of identifying, selecting and/or characterizing compounds which modulate the activity of a Src family kinase” (Sirenade Pharmaceuticals AG, priority 2003, dated 2005)

Tests used:
[1] = system: Src-TQ/YF expressing ZM170 cell lines; test: Suppression of tet-induced phenotype changes, evaluated by eye/microscope, normal cell culture plates; assay type: cell-based, human; settings: adherent, PP1-Chr. and PP2 shown as combination 10µM + 5µM
Description: Phenotype changes -tet → +tet were evaluated in 24-well plates (Nunc; cat.no. 143982) under the following several different growth conditions to identify the strongest possible response (Δpt(-tet→+tet)max) 1. full (10% serum containing) growth medium a) without any growth factor supplement (-), b) with epidermal growth factor (EGF; 100ng/ml) (cat.no. 115, Research Diagnostics Inc. (RDI), Flanders, NJ, USA) or c) platelet derived growth factor type BB (PDGF-BB; 30ng/ml) (cat.no. 114b, RDI) or d) hepatocyte growth factor (HGF; 20ng/ml) (RDI, cat.no.300-010), or 2. serum-free medium a) - or b) +EGF or c) +PDGF or d) +HGF. In all cases, cells were first seeded into standard 24-well or 96-well plates (Nunc) in full growth medium. The cell number seeded per well was also varied to identify the most suitable cell densities producing Δpt(-tet→+tet)max. […]
To that end, the test compounds PP1-Chr., PP2 (cat.no. 529573, Calbiochem) and SU6656 (cat.no. 572635, Calbiochem) (see Fig.9p for chemical structures) were individually added to the cells together with tet, and the development of the phenotype changes in the presence of these compounds was monitored subsequently in direct comparison with cells that received no compound or only vehicle (0.2% DMSO) together with tet induction. […]

[2] = system: Src-TQ/YF expressing cell line ZM170.21; test: CTB and ATP cell viability/metabolic activity assays, suppression of tet-induced reduction; assay type: cell-based, human; settings: ZM170.21 (Src-TQ/YF), 5µM PP2 + 10µM PP1-Chr., 40µM D5, 1µM 17-AAG, 1µM radicicol
Description: To proof the concept of the assay platform according to the invention in a quantitative manner with a highly parallel readout, the following cell viability / metabolic activity assays from Promega according to the manufacturer's protocols: "CellTiter 96 AQueous One Solution Cell Proliferation Assay (MTS)", CellTiter-BlueTM Cell Viability Assay (CTB), and the ATP-status assay "CellTiter-Glo Luminescent Cell Viability Assay" (ATP) were used to obtain quantitative values reflecting (aspects of) the phenotype changes. The cells were seeded into white-walled/ clear bottom 96-well plates ["MICROTEST" by Falcon, cat.no. 353947] for MTS and ATP assays and in black-walled/ clear bottom 96-well plates ["MICROTEST" by Falcon, cat.no. 353948] for the CTB assay at the appropriate densities. Tet and/or compound addition (where applicable) was started the next day. Measurements were taken 1,2 and 3 days later using the Wallac Victor^2TM multilabel plate reader (Perkin Elmer). Absorbance was measured at 490nm (MTS). Luminescence mode was used for the ATP assay. For CTB fluorescence excitation wavelength was 550nm (filter: 550(20)nm), emission wavelength was 590 nm (filter: 590(20)nm). Indicated are the means of sixplicate determinations (from 6 independent wells) in the absence of tet (mean(-tet)) and in the presence of tet (mean(+tet)), followed by the respective corresponding standard deviations SD(-tet) and SD(+tet). The cell viability/ metabolic activity upon tet-induction in relation to the cell viability/ metabolic activity without tet ("+/tet(means") is calculated from the quotient of the means of the measured cell viability/ metabolic activity signals from i) cells incubated without tet and ii) cells incubated with tet. […] Furthermore indicated are the corresponding Z' values. In the present context: Z'=1-(3(SD(+tet)+SD(-tet))/ |mean(+tet)-mean(-tet)|. […] SD=0) (Zhang et al., 1999). Z'≥0 is required for an assay useful for a screening approach; a Z'≥0.5 is considered excellent for an assay with regard to high throughput screening. […] Three more parameters reflecting the effects of compounds on cell viability/metabolic activity in these assays are indicated in Tab.3 and Tab.4: Toxicity reflects the nonspecific (i.e. irrespective of tet-induced Src/ Src mutant expression) effects of a compound on the viability/ metabolic activity of the cells. It is calculated as toxicity=1-mean(-tet, compound)/mean(-tet,(DMSO)). […] The suppression value quantifies the potency of a compound with respect to suppression of the tet-induced change in cell viability / metabolic activity. Usually, tet-induction reduces cell viability / metabolic activity due to Src activity and addition of a Src inhibitory compound mitigates this reduction. A suppression of 100% means that the compound totally suppresses the tet-induced decrease in cell viability / metabolic activity (as in the absence of tet). The following formula is employed: Suppres-sion=([…]). Finally, the corresponding Z' value is calculated as follows: Z'(suppression)=1- 3([…]). The factor Qtox corrects the means and SD determined in the absence of a compound for the (nonspecific) toxicity effect of the respective compound, which would otherwise overlay and obscure the specific suppression, if toxicity is not neglectable. […] On each day 4 measurements are taken (1, 2, 3 and 4 h after the addition of the CTB assay reagents). […]

**Q.** Which “suppression of tet-induced phenotype changes” value [1] does the source give for `CC(C)(C)n1nc(-c2ccc(Cl)cc2)c2c(N)ncnc21` [PP2] here?
**A.** ineffective

**Q.** What about the “suppression of the +/-tet(means)-values” [2] of the same compound?
**A.** did not significantly suppress
